{
  "source": "patent US20060083714A1",
  "about": "“Combination of a pde iv inhibitor and a tnf-alpha antagonist” (priority 2003, published 2006)",
  "key": {"PDE IV [1]": {"test_system": "PDE IV", "test": "Inhibition of PDE isoenzymes: PDE IV (PDE4, cytosol of human neutrophils, cAMP substrate)", "format": "biochemical", "procedure": "PDE inhibition is then determined by the presence or absence of substrate degradation products. […] The relative ability of an inhibitory compound to slow or prevent the degradation of tritiated cyclic nucleotides is one test that is indicative of how well the compound in question selects one or more of each isoform to inhibit.\nIn practice, the in vitro selectivity of a PDE IV inhibitor may vary depending upon the condition under which the test is performed and on the inhibitors being tested. However, for the purposes of this specification, the selectivity of a PDE IV inhibitor can be measured as a ratio of the in vitro IC50 value for inhibition of any other isoform of the phosphodiesterase enzyme (Z) other than PDE IV, divided by the IC50 value for inhibition of PDE IV (PDE Z IC50/PDE IV IC50), where Z identifies any PDE other than PDE IV. As used herein, the term “IC50” refers to the concentration of a compound that is required to produce 50% inhibition of phosphodiesterase activity. […]\nAfter preincubation for 5 min at 37° C., the reaction isstarted by the addition of substrate (cAMP or cGMP) and the assays are incubated for further 15 min at 37° C. […] The columns are elutedwith 2 ml of 30 mM ammonium formate (pH 6.0) and the eluate is counted for radioactivity. Results are corrected for blank values (measured in the presence of denatured protein) that are below 5% of total radioactivity. […]"}, "PDE I": {"test_system": "PDE I", "conditions": "reported in Hatzelmann et al., JPET 297(1):267-279 (2001); read-out: IC50 for roflumilast activity on PDE I; cited from earlier work"}, "PDE IV [2]": {"test_system": "T1, PDE IV", "T1 construct": "other: reported in Hatzelmann et al., JPET 297(1):267-279 (2001)", "conditions": "reported in Hatzelmann et al., JPET 297(1):267-279 (2001); read-out: IC50 for roflumilast activity on PDE IV; cited from earlier work"}},
  "data": [
    {"compound": "O=C(Nc1c(Cl)cncc1Cl)c1ccc(OC(F)F)c(OCC2CC2)c1", "note": "[roflumilast, 3-(cyclopropylmethoxy)-N-(3,5-dichloropyridin-4-yl)-4-(difluoromethoxy) benzamide]", "values": [
      {"measurement": "selectivity for PDE IV as compared with PDE V (PDE V IC50/PDE IV IC50)", "setting": "PDE IV [1]; 8/0.0008", "value": "at least 10,000"},
      {"measurement": "selectivity for PDE IV as compared with PDE I (PDE I IC50/PDE IV IC50)", "setting": "PDE IV [1]; >10/0.0008", "value": "at least 12,500"},
      {"measurement": "IC50", "setting": "PDE I", "value": "> 10000", "unit": "nM"},
      {"measurement": "IC50", "setting": "PDE IV [2]", "value": 0.8, "unit": "nM"}
    ]}
  ]
}
